What all share (format): functional
Holding throughout (settings): read-out: DIZ

The test system of one experiment is Pseudomonas aeruginosa. Description: Antibacterial activity against Pseudomonas aeruginosa at 5 mg/ml after 24 hrs by agar-diffusion technique. For orientation: A growth-free zone around the sample is the usual read-out of agar diffusion tests.
The subject of a further experiment is Bacillus subtilis. The experiment is described as follows: Antibacterial activity against Bacillus subtilis at 5 mg/ml after 24 hrs by agar-diffusion technique.
The test system of a further experiment is Fusarium oxysporum. The experiment is described as follows: Antifungal activity against Fusarium oxysporum at 5 mg/ml by paper disc diffusion method.
Another experiment relates to Rhizoctonia solani. Description: Antifungal activity against Rhizoctonia solani at 5 mg/ml by paper disc diffusion method.
The next experiment relates to Aspergillus niger. Description: Antifungal activity against Aspergillus niger at 5 mg/ml by paper disc diffusion method.

SMILES strings stand for the structures.

With `CC(=O)N[C@@H]1[C@@H](OC(C)=O)[C@H](OC(C)=O)[C@@H](COC(C)=O)O[C@H]1Sc1n[nH]c(-c2cc3ccccc3[nH]2)n1`, the zone of inhibition at 5000 µg/mL is 3.9 mm with Pseudomonas aeruginosa; 5.1 mm in the experiment on Bacillus subtilis; 0 mm in the experiment with Fusarium oxysporum; 1.75 mm in the experiment on Rhizoctonia solani; 0 mm with Aspergillus niger.
Consider `NC(=S)NNC(=O)c1cc2ccccc2[nH]1`, for which the zone of inhibition at 5000 µg/mL in the experiment with Pseudomonas aeruginosa worked out at 2.5 mm; with Bacillus subtilis, 12 mm; in the experiment with Fusarium oxysporum, 1 mm; with Rhizoctonia solani, 1.05 mm; in the experiment on Aspergillus niger it was 0 mm.
The like results for `CC(=O)OC[C@H]1O[C@@H](Sc2n[nH]c(-c3cc4ccccc4[nH]3)n2)[C@H](OC(C)=O)[C@@H](OC(C)=O)[C@@H]1OC(C)=O` were, in that order, 3.25 mm, 12 mm, 0 mm, 0.6 mm and 0 mm.
The like results for `CCOC(=O)c1cc2ccccc2[nH]1` were, in that order, 4.85 mm, 5.6 mm, 1.9 mm, 2.7 mm and 1.3 mm.
Take `S=c1nc(-c2cc3ccccc3[nH]2)[nH][nH]1`: the zone of inhibition at 5000 µg/mL was 3.5 mm with Pseudomonas aeruginosa; 12 mm with Bacillus subtilis; 1.7 mm in the experiment on Fusarium oxysporum; 0.8 mm in the experiment with Rhizoctonia solani; 0 mm in the experiment with Aspergillus niger.
The like results for `NNC(=O)c1cc2ccccc2[nH]1` were, in that order, 3 mm, 12 mm, 1.3 mm, 0.85 mm and 0 mm.
The like results for `CC(=O)OC[C@H]1O[C@@H](Sc2n[nH]c(-c3cc4ccccc4[nH]3)n2)[C@H](OC(C)=O)[C@@H](OC(C)=O)[C@H]1OC(C)=O` were, in that order, 0.5 mm, 12 mm, 2.1 mm, 0.75 mm and 0 mm.
The like results for `CCOC(=O)/C(C)=N/Nc1ccccc1` were, in that order, 2.65 mm, 12 mm, 2.3 mm, 1.95 mm and 1.85 mm.
On to `O=C(N[C@H](CO)[C@H](O)c1ccc([N+](=O)[O-])cc1)C(Cl)Cl` [CHLORAMPHENICOL], for which the zone of inhibition at 5000 µg/mL came to 7.9 mm in the experiment on Pseudomonas aeruginosa and 12 mm in the experiment on Bacillus subtilis.
Consider `CC(=O)OC[C@H]1O[C@@H](n2nc(-c3cc4ccccc4[nH]3)nc2S[C@@H]2O[C@H](COC(C)=O)[C@@H](OC(C)=O)[C@H](OC(C)=O)[C@H]2OC(C)=O)[C@H](OC(C)=O)[C@@H](OC(C)=O)[C@@H]1OC(C)=O`, for which the zone of inhibition at 5000 µg/mL in the experiment on Pseudomonas aeruginosa amounted to 2.5 mm; in the experiment with Bacillus subtilis, 6.5 mm; in the experiment on Fusarium oxysporum, 1.95 mm; in the experiment with Rhizoctonia solani it was 1.15 mm; in the experiment on Aspergillus niger, 0 mm.

The values are drawn from ChEMBL document CHEMBL2406921, “Regioselective synthesis, characterization and antimicrobial evaluation of S-glycosides and S,N-diglycosides of 1,2-Dihydro-5-(1H-indol-2-yl)-1,2,4-triazole-3-thione” (2013).
